This assay deals with T1, cysteine synthase (Arabidopsis thaliana, UniProt Q9S6Z7).
T1 construct: made in house; host or cells: E. coli BL21(DE3)lysS (pET30/CS) or Sf-9 insect cells (baculovirus, pFB/CS)
The experiment in a line: Assay tolerance of DMSO in the cysteine synthase assay. It is filed as biochemical. Particulars: 0 to 2% DMSO (by volume). The method, then: A cysteine synthase assay was performed using various amounts of DMSO to test the assay compatibility of the DMSO. The results are shown in FIG. 24, where all values are the mean of triplicate determinations, and standard deviations are indicated.

T1 sequence (Q9S6Z7 whole entry): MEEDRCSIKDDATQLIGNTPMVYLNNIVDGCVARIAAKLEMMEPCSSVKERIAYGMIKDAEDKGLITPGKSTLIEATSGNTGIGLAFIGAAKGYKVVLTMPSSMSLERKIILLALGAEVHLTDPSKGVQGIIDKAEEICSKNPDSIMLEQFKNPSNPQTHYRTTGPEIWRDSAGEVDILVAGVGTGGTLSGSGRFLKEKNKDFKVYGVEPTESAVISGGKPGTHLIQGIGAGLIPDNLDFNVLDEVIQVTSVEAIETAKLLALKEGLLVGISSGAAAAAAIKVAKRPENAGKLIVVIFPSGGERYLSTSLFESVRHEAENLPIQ

Take `C[S+](C)[O-]` [DMSO, dimethyl sulfoxide]: the “inhibitory effect on cysteine synthase activity” value is “No inhibitory effect”.

The values above are taken from patent US6605459B2, “Methods for measuring cysteine and determining cysteine synthase activity” (Paradigm Genetics, Inc., priority 2001, dated 2003).
